# Experimental data: patent US12285012B2, “Compositions comprising pyridine carboxylate herbicides with acetolactate synthase (ALS) inhibitor herbicides” (Corteva Agriscience LLC, priority 2018, dated 2025)
# Where two headings read alike, the source gives them in different places.
# How the values were obtained:
# [1] = test system: spring rape (BRSNN, Brassica napus); assay: Greenhouse postemergence herbicidal effect; type: in vivo
# Summary of the method: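 Injury was rated visually after 20-22 d on a 0 (none) to 100% (complete kill) scale relative to solvent-sprayed controls, with sub-irrigation to avoid wash-off. Rates were given in g ae/ha or g ai/ha depending on component.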
# [2] = test system: Canadian thistle (CIRAR, Cirsium arvense); assay: Greenhouse postemergence herbicidal effect; type: in vivo
# Summary of the method: (§1)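 Visual injury ratings (0 = no injury, 100 = complete kill) were taken 20–22 d after treatment relative to solvent-blank controls. Applications were made to plants at the second or third true leaf stage, using emulsifiable concentrates with cloquintocet-mexyl safener.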
# spring wheat (TRZAS) = type: in vivo, Triticum aestivum
# Summary of the method: as §1
# [3] = test system: ivyleaf morningglory (IPOHE, Ipomoea hederacea); assay: Greenhouse postemergence herbicidal effect; type: in vivo
# Source text: (§2) Seeds of the desired test plant species were planted in a 90:10% v/v (volume/volume) mixture of PRO-MIX® BX (Premier Tech Horticulture, Quakertown, PA, USA) and PROFILE® GREENS GRADE™ (Profile Products LLC, Buffalo Grove, IL, USA) planting mixture, which typically has a pH of 5.2 to 6.2 and an organic matter content of at least 50 percent, in plastic pots with a surface area of 103.2 square centimeters (cm^2). In some aspects, to ensure good germination and healthy plants, a fungicide treatment and/or other chemical or physical treatment was applied. The plants were grown for 7-36 days (d) in a greenhouse with an approximate 14-hour (h) photo-period which was maintained at about 23° C. during the day and 22° C. during the night. Nutrients and water were added on a regular basis and supplemental lighting was provided with overhead metal halide 1000-Watt lamps as necessary. The plants were employed for testing when they reached the second or third true leaf stage.
# (§3) Emulsifiable concentrates of each of each pyridine carboxylate herbicide (Compound A or Compound B) were prepared at 100 grams acid equivalent per liter (g ae/L). The emulsifiable concentrates also included a safener, cloquintocet-mexyl, at 120 grams active ingredient per liter (g ai/L), unless otherwise noted below. An aliquot of each emulsifiable concentrate was placed in a 25 mL glass vial and diluted with an aqueous mixture of 1.25% (v/v) ACTIROB® B esterified rapeseed oil (Bayer Crop Science, Research Triangle Park, NC, USA) or MSO® Concentrate with LECI-TECH® methylated soybean oil (Loveland Products, Loveland, CO, USA) to obtain concentrated stock solutions at the highest application rate for each herbicide, based upon a 12 milliliter (mL) application volume at a rate of 187 liters per hectare (L/ha). The concentrated stock solutions were further diluted with an aqueous mixture of 1.25% v/v ACTIROB® B or MSO® Concentrate with LECI-TECH® to obtain stock solutions at reduced application rates for each herbicide. Spray solutions of the herbicide combinations (Compound A or Compound B plus ALS herbicide) were prepared by adding weighed amounts or aliquots of the ALS herbicides to the stock solutions of Compound A or Compound B to form 12-mL spray solutions in two- or three-way combinations.
# (§4) The spray solutions were applied to the plant material with an overhead Mandel track sprayer equipped with 8002E nozzles calibrated to deliver 187 L/ha over an application area of 0.503 square meters (m^2) at a spray height of 18 inches (43 centimeters (cm)) above the average plant canopy. Control plants were sprayed in the same manner with the solvent blank. All pyridine carboxylate herbicide (component a) application rates are given as “g ae/ha” and all ALS inhibitor (component b) application rates are given as “g ai/ha.”
# (§5) The treated plants and control plants were placed in a greenhouse as described above and watered by sub-irrigation to prevent wash-off of the test compounds. After 20-22 d, the condition of the test plants as compared with that of the control plants was determined visually and scored on a scale of 0 to 100 percent where 0 corresponds to no injury and 100 corresponds to complete kill.
# [4] = test system: common sunflower (HELAN, Helianthus annuus); assay: Greenhouse postemergence herbicidal effect; type: in vivo
# Source text: as §2, §3, §4, §5
# [5] = test system: poinsettia (EPHHL, Euphorbia heterophylla); assay: Greenhouse postemergence herbicidal effect; type: in vivo
# Source text: as §2, §3, §4, §5
# [6] = test system: nutsedge (CYPES, Cyperus esculentus); assay: Greenhouse postemergence herbicidal effect; type: in vivo
# Source text: as §2, §3, §4, §5
# [7] = test system: grain sorghum (SORVU, Sorghum vulgare); assay: Greenhouse postemergence herbicidal effect; type: in vivo
# Source text: as §2, §3, §4, §5
# [8] = test system: large crabgrass (DIGSA, Digitaria sanguinalis); assay: Greenhouse postemergence herbicidal effect; type: in vivo; conditions: 20 g/ha
# Source text: as §2, §3, §4, §5
# [9] = test system: wild oat (AVEFA, Avena fatua); assay: Greenhouse postemergence herbicidal effect; type: in vivo; conditions: 20 g/ha
# Source text: as §2, §3, §4, §5
# [10] = test system: giant foxtail (SETFA, Setaria faberi); assay: Greenhouse postemergence herbicidal effect; type: in vivo; conditions: 20 g/ha
# Source text: as §2, §3, §4, §5
# [11] = test system: annual ryegrass (LOLMG=Lolium multiflorum subsp. gaudini); assay: Greenhouse postemergence herbicidal effect; type: in vivo; conditions: 20 g/ha
# Source text: as §2, §3, §4, §5
# [12] = test system: barnyard grass (ECHCG, Echinochloa crus-galli); assay: Greenhouse postemergence herbicidal effect; type: in vivo; conditions: Penoxsulam 20 g/ha
# Source text: as §2, §3, §4, §5
# [13] = test system: broadleaf signalgrass (BRAPP, Brachiaria platyphylla); assay: Greenhouse postemergence herbicidal effect; type: in vivo; conditions: Penoxsulam 20 g/ha
# Source text: as §2, §3, §4, §5
# [14] = test system: small-flower flatsedge (CYPDI, Cyperus difformis); assay: Greenhouse postemergence herbicidal effect; type: in vivo; conditions: Penoxsulam 20 g/ha
# Source text: as §2, §3, §4, §5
smiles,measurement,setting,value
"COc1cc(OC)nc(Oc2cccc(Oc3nc(OC)cc(OC)n3)c2C(=O)O)n1 [Bispyribac, bispyribac]",% visual injury,[1]; Bispyribac 90 g/ha,88%
same,% visual injury,[2]; Bispyribac 90 g/ha,90%
same,% visual injury,spring wheat (TRZAS); Bispyribac 90 g/ha,18%
same,% visual injury,[3]; Bispyribac 90 g/ha,70%
same,% visual injury,[4]; Bispyribac 90 g/ha,97%
same,% visual injury,[5]; Bispyribac 90 g/ha,95%
same,% visual injury,[6]; Bispyribac 90 g/ha,20%
same,% visual injury,[7]; Bispyribac 90 g/ha,73%
"COc1cc(OC)nc(NC(=O)NS(=O)(=O)c2ncccc2C(=O)N(C)C)n1 [Nicosulfuron, nicosulfuron]","% visual injury, Obs",[8],65%
same,"% visual injury, Obs",[9],96%
same,"% visual injury, Obs",[10],100%
same,"% visual injury, Obs",[11],96%
same,"% visual injury, Obs",[6]; 20 g/ha,40%
"COc1cnc(OC)n2nc(NS(=O)(=O)c3c(OCC(F)F)cccc3C(F)(F)F)nc12 [Penoxsulam, penoxsulam]",% visual injury Obs,[12],60%
same,% visual injury Obs,[13],32%
same,% visual injury Obs,[14],17%
"COc1cc(OC)nc(Oc2cccc(Oc3nc(OC)cc(OC)n3)c2C(=O)ON=C(c2ccccc2)c2ccccc2)n1 [Pyribenzoxim, pyribenzoxim]",% visual injury,[1]; Pyribenzoxim 10 g/ha,90%
same,% visual injury,[2]; Pyribenzoxim 10 g/ha,90%
same,% visual injury,spring wheat (TRZAS); Pyribenzoxim 10 g/ha,13%
same,% visual injury,[3]; Pyribenzoxim 10 g/ha,78%
same,% visual injury,[4]; Pyribenzoxim 10 g/ha,98%
same,% visual injury,[5]; Pyribenzoxim 10 g/ha,100%
same,% visual injury,[6]; Pyribenzoxim 10 g/ha,0%
same,% visual injury,[7]; Pyribenzoxim 10 g/ha,73%
